Tests used:
Assay in all cases: Dundee kinase panel
Format in all cases: biochemical
Conditions in all cases: for remaining activity at 1 µM: read-out: residual activity
BRSK1 = molecular target: T1, BRSK1 (Homo sapiens, UniProt Q8TDC3)
T1 construct: lines 1-140) and Reaction Biology
T1 sequence (Q8TDC3 1-778): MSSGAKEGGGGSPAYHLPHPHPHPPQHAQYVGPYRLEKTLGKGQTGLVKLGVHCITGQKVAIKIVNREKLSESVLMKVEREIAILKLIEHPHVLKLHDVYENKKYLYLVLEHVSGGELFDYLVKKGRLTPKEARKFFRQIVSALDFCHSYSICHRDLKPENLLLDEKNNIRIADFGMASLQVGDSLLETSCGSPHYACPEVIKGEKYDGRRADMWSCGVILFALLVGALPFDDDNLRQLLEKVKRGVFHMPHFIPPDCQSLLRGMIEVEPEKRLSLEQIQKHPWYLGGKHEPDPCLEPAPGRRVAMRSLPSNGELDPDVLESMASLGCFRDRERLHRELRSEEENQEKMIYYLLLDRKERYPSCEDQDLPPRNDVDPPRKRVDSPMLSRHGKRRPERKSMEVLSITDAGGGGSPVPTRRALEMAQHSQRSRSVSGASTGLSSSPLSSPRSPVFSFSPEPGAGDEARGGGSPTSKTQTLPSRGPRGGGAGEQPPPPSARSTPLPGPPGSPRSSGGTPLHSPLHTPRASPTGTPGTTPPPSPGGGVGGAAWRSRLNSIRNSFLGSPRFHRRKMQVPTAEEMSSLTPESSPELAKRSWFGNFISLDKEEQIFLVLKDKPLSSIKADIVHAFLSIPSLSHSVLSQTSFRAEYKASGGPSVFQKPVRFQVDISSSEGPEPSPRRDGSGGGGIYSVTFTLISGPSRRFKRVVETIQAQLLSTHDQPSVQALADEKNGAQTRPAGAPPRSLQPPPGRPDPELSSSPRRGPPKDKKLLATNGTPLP
Description: (§1) Compounds were screened at 1 μM. For key hits, pIC50 values were then determined by HTRF as above. […] Stability in mouse and human liver microsomes was determined by Cyprotex.

CDK9-Cyclin T1 = molecular target: T2, CDK9-Cyclin T1 (Homo sapiens, UniProt P50750)
T2 construct: lines 1-140) and Reaction Biology
T2 sequence (P50750 whole entry): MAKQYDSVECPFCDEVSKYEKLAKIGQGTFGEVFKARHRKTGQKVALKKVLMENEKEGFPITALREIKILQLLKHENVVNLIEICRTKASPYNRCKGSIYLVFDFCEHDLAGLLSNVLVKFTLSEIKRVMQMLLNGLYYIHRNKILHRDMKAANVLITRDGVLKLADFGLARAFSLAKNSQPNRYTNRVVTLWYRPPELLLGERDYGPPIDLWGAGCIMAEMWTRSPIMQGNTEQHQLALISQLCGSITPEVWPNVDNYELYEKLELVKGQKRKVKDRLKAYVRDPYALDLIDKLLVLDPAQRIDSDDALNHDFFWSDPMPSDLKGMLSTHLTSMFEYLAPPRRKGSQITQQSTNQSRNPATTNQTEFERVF
T2 sequence (O60563 whole entry partner): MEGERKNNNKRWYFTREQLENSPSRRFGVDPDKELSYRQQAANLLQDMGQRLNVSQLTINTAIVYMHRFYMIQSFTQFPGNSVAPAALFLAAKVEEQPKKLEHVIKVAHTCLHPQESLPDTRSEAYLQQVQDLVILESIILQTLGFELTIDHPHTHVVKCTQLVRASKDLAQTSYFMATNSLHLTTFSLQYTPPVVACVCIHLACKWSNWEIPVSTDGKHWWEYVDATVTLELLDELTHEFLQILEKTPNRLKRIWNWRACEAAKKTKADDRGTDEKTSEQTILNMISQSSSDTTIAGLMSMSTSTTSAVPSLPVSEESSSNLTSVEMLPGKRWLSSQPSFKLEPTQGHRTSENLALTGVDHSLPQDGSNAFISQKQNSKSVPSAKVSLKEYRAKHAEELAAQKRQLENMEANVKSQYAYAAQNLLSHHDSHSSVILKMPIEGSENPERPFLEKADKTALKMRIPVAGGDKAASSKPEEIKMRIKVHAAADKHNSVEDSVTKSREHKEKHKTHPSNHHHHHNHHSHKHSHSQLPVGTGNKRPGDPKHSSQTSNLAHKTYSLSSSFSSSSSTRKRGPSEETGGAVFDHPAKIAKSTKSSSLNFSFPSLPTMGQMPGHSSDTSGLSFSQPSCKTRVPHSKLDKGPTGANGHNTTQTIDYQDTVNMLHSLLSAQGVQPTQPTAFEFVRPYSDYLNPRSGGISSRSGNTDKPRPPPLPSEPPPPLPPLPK
Description: as §1

CHK1 = molecular target: T3, CHK1 (Homo sapiens, UniProt O14757)
T3 construct: lines 1-140) and Reaction Biology
T3 sequence (O14757 1-476): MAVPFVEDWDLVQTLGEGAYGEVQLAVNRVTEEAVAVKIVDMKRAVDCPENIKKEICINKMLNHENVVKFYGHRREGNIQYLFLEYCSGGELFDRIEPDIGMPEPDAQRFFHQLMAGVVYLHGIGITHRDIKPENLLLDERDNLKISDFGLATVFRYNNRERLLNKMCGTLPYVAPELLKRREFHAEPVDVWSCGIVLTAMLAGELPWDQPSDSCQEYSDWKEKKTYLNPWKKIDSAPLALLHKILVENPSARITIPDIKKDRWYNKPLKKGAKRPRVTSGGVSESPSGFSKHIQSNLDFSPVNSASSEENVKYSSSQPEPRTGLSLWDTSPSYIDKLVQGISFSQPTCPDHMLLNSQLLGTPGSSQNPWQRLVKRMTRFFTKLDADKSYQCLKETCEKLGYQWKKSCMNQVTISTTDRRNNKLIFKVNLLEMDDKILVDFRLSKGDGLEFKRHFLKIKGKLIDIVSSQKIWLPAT
Description: as §1

EPH-A4 = molecular target: T4, EPH-A4 (Homo sapiens, UniProt P54764)
T4 construct: lines 1-140) and Reaction Biology
Description: as §1

ERK8 = molecular target: T5, ERK8 (Homo sapiens, UniProt Q8TD08)
T5 construct: lines 1-140) and Reaction Biology
T5 sequence (Q8TD08 1-544): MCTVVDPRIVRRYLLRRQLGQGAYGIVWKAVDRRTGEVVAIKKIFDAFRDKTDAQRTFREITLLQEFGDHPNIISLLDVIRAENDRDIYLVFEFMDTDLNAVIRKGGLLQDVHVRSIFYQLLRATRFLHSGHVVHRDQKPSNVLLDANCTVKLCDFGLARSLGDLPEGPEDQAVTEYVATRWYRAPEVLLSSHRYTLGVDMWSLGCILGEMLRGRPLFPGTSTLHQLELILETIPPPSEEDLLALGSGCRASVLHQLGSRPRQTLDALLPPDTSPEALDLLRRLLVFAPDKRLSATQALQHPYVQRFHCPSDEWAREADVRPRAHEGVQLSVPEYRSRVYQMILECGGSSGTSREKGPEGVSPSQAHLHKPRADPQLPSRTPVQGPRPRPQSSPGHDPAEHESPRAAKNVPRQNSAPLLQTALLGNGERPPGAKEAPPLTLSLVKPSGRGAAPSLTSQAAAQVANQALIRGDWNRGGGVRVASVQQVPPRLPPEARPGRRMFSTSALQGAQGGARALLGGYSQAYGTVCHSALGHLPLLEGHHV
Description: as §1

HIPK2 = molecular target: T6, HIPK2 (Homo sapiens, UniProt Q9H2X6)
T6 construct: lines 1-140) and Reaction Biology
T6 sequence (Q9H2X6 whole entry): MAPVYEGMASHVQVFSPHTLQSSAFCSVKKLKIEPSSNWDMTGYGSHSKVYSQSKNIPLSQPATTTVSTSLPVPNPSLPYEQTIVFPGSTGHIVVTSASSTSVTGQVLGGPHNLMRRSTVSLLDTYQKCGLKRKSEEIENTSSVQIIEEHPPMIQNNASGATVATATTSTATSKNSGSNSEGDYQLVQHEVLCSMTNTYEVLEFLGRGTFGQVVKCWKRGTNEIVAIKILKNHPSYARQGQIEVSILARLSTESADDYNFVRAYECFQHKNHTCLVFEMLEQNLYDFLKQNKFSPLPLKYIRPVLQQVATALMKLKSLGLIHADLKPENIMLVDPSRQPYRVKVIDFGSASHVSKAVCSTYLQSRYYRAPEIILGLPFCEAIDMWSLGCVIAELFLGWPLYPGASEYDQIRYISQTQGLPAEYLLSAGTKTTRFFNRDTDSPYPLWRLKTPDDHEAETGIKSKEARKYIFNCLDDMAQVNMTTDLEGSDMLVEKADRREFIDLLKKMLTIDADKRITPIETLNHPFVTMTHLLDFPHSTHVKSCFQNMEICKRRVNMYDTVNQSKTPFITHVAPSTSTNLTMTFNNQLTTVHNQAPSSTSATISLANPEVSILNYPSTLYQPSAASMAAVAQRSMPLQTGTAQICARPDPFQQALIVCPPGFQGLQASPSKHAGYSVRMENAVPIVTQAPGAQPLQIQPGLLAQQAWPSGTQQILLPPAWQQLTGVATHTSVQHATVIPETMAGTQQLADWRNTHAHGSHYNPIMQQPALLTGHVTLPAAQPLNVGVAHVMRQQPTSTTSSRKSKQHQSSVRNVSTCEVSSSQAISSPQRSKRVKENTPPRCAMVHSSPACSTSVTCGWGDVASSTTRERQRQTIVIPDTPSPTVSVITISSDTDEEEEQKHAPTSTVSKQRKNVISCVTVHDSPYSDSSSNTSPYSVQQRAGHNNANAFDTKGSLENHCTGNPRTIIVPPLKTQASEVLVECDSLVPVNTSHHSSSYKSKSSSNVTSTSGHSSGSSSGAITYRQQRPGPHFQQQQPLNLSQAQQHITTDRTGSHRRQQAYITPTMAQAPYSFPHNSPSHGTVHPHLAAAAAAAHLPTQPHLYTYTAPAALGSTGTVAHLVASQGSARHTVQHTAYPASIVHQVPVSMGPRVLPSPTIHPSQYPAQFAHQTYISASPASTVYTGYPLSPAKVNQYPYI
Description: as §1

HIPK3 = molecular target: T7, HIPK3 (Homo sapiens, UniProt Q9H422)
T7 construct: lines 1-140) and Reaction Biology
Description: as §1

IR = molecular target: T8, IR (Homo sapiens, UniProt P06213)
T8 construct: lines 1-140) and Reaction Biology
T8 sequence (P06213 28-1382): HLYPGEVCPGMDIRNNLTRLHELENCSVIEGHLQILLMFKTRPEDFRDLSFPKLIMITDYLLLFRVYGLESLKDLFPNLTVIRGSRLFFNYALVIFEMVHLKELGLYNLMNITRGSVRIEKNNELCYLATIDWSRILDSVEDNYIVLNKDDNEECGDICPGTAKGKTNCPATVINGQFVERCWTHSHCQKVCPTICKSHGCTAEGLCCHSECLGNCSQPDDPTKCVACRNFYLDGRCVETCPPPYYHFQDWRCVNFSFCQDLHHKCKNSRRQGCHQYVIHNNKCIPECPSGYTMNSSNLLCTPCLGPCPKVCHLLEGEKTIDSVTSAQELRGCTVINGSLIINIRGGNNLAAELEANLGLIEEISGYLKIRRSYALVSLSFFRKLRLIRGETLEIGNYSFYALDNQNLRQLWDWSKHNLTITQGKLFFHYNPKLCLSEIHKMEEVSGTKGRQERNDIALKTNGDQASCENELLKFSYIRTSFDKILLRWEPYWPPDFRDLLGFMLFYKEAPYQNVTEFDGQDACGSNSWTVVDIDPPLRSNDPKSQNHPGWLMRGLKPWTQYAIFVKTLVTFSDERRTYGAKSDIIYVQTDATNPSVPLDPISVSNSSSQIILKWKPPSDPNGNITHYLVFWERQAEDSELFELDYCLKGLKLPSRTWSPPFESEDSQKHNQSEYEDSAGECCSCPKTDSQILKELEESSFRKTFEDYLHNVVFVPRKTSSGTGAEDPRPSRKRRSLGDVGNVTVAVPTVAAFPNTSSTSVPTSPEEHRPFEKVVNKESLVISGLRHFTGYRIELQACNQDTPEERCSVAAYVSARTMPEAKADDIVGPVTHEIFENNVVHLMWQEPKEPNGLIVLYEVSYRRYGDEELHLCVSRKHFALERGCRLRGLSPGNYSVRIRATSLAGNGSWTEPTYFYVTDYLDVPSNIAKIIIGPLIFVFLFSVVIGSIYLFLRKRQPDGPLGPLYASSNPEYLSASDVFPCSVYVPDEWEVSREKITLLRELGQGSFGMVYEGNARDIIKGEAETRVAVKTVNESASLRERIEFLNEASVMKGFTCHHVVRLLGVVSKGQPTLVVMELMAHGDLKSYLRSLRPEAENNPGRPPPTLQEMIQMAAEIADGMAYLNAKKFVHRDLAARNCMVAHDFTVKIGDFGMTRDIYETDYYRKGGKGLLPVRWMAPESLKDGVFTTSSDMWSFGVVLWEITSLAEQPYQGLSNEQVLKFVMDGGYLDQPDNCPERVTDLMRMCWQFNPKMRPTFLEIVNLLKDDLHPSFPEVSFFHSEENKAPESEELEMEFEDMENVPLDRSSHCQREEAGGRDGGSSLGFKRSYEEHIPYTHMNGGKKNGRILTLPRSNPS
Description: as §1

MAPKAP-K3 = molecular target: T9, MAPKAP-K3 (Homo sapiens, UniProt Q16644)
T9 construct: lines 1-140) and Reaction Biology
Description: as §1

MARK2 = molecular target: T10, MARK2 (Homo sapiens, UniProt Q7KZI7)
T10 construct: lines 1-140) and Reaction Biology
T10 sequence (Q7KZI7 whole entry): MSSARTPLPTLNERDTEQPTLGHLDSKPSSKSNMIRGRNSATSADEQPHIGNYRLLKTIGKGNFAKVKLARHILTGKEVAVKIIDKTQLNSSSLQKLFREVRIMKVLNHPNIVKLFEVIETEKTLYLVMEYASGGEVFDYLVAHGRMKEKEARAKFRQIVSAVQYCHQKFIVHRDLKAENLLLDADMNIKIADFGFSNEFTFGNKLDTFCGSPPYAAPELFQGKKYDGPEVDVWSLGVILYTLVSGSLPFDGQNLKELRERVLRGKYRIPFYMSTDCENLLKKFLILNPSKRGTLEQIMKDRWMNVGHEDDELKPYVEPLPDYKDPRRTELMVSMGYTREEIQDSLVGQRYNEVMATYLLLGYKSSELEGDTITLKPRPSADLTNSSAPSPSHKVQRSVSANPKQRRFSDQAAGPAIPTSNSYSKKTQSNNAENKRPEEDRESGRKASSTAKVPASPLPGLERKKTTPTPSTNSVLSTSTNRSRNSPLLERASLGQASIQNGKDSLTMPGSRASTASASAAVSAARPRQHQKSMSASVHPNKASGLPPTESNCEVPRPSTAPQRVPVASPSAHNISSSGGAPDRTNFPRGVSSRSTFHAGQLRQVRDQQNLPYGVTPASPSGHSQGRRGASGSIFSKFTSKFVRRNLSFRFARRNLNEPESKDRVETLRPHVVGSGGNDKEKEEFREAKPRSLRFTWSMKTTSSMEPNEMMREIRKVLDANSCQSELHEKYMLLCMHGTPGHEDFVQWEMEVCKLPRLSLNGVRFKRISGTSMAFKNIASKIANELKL
Description: as §1

OSR1 = molecular target: T11, OSR1 (Homo sapiens, UniProt O95747)
T11 construct: lines 1-140) and Reaction Biology
T11 sequence (O95747 whole entry): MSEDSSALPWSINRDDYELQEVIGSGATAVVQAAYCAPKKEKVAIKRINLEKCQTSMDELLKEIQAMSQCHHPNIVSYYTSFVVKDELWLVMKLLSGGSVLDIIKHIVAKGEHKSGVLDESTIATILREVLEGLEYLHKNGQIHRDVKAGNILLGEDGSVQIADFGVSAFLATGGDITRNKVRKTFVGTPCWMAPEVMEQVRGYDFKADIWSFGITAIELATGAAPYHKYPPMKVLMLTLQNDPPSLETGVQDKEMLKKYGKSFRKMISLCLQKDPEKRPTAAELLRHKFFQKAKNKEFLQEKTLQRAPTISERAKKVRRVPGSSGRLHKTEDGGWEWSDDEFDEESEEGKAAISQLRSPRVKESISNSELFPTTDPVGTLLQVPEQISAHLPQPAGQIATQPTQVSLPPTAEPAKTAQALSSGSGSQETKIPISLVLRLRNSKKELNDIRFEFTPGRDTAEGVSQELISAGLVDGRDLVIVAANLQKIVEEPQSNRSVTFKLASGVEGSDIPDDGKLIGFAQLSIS
Description: as §1

WNK1 = molecular target: T12, WNK1 (Homo sapiens, UniProt Q9H4A3)
T12 construct: lines 1-140) and Reaction Biology
Description: as §1

COCCOc1ccc(-c2cn(-c3ccccc3)c3nc[nH]c(=O)c23)cc1 [DMX-5804, 5-[4-(2-methoxy-ethoxy)-phenyl]-7-phenyl-3,7-dihydro-pyrrolo[2,3-d]pyrimidin-4-one]
remaining activity at 1 µM (BRSK1): 97%
remaining activity at 1 µM (CDK9-Cyclin T1): 113%
remaining activity at 1 µM (CHK1): 86%
remaining activity at 1 µM (EPH-A4): 105%
remaining activity at 1 µM (ERK8): 110%
remaining activity at 1 µM (HIPK2): 102%
remaining activity at 1 µM (HIPK3): 103%
remaining activity at 1 µM (IR): 115%
remaining activity at 1 µM (MAPKAP-K3): 104%
remaining activity at 1 µM (MARK2): 98%
remaining activity at 1 µM (OSR1): 128%
remaining activity at 1 µM (WNK1): 106%

Oc1ncnc2c1c(-c1ccccc1)cn2-c1ccccc1 [F1386-0303, 5,7-diphenyl-7H-pyrrolo[2,3-d]pyrimidin-4-ol]
remaining activity at 1 µM (BRSK1): 84%
remaining activity at 1 µM (CDK9-Cyclin T1): 88%
remaining activity at 1 µM (CHK1): 98%
remaining activity at 1 µM (EPH-A4): 92%
remaining activity at 1 µM (ERK8): 109%
remaining activity at 1 µM (HIPK2): 87%
remaining activity at 1 µM (HIPK3): 93%
remaining activity at 1 µM (IR): 118%
remaining activity at 1 µM (MAPKAP-K3): 104%
remaining activity at 1 µM (MARK2): 98%
remaining activity at 1 µM (OSR1): 102%
remaining activity at 1 µM (WNK1): 109%

Nc1ncc(C(=O)NC2CN(C(=O)C3CC3)C2)c2ccc(-c3cccc(F)c3)nc12 [GNE-495]
residual activity (BRSK1; 1 μM): 71%
residual activity (CDK9-Cyclin T1; 1 μM): 78%
residual activity (CHK1; 1 μM): 93%
residual activity (EPH-A4; 1 μM): 72%
residual activity (ERK8; 1 μM): 95%
residual activity (HIPK2; 1 μM): 96%
residual activity (HIPK3; 1 μM): 81%
residual activity (IR; 1 μM): 107%
residual activity (MAPKAP-K3; 1 μM): 99%
residual activity (MARK2; 1 μM): 42%
residual activity (OSR1; 1 μM): 109%
residual activity (WNK1; 1 μM): 102%

O=C1Nc2ccc(I)cc2/C1=C/c1cc(Br)c(O)c(Br)c1 [GW5074]
remaining activity at 1 µM (BRSK1): 68%
remaining activity at 1 µM (CDK9-Cyclin T1): 104%
remaining activity at 1 µM (CHK1): 33%
remaining activity at 1 µM (EPH-A4): 91%
remaining activity at 1 µM (ERK8): 35%
remaining activity at 1 µM (HIPK2): 134%
remaining activity at 1 µM (HIPK3): 25%
remaining activity at 1 µM (IR): 26%
remaining activity at 1 µM (MAPKAP-K3): 71%
remaining activity at 1 µM (MARK2): 49%
remaining activity at 1 µM (OSR1): 24%
remaining activity at 1 µM (WNK1): 94%

O=C1Cc2c([nH]c3ccc(Br)cc23)-c2ccccc2N1 [Kenpaullone]
remaining activity at 1 µM (BRSK1): 55%
remaining activity at 1 µM (CDK9-Cyclin T1): 22%
remaining activity at 1 µM (CHK1): 68%
remaining activity at 1 µM (EPH-A4): 96%
remaining activity at 1 µM (ERK8): 46%
remaining activity at 1 µM (HIPK2): 103%
remaining activity at 1 µM (HIPK3): 87%
remaining activity at 1 µM (IR): 43%
remaining activity at 1 µM (MAPKAP-K3): 83%
remaining activity at 1 µM (MARK2): 35%
remaining activity at 1 µM (OSR1): 52%
remaining activity at 1 µM (WNK1): 92%

From PMC6458995, “MAP4K4 Inhibition Promotes Survival of Human Stem Cell-Derived Cardiomyocytes and Reduces Infarct Size In Vivo” (Cell Stem Cell, 2019)
